Laboratory results published in patent US9427442B2, “Fluoroalkyl and fluorocycloalkyl 1,4-benzodiazepinone compounds” (BRISTOL-MYERS SQUIBB COMPANY, priority 2012, dated 2016).

Legend:
[1] = Human metabolic stability half-life assay; type: in vitro ADME; conditions: human liver microsomes, NADPH, 0.5 μM compound, 45-minute time course; for half-life at 0.5 µM: pH 7.4, read-out: HLM (t1/2, min)
Text: Metabolic Stability Half-Life Panel

[2] = tested on: human Notch 1; experiment: Notch-CBF1 Transactivation Assay (Notch 1); type: cell-based; conditions: read-out: Notch 1 (IC50); HeLa cells transfected with truncated Notch 1 and CBF1 luciferase reporter; 18 hours; average of N experiments
Text: (§1) Notch-CBF1 Transactivation Assay
(§2) The Notch-CBF1 (C-promoter binding factor I) cell based transactivation assay is based on the ability of the released Notch intracellular domain fragments (NICDs) to function as transcription factors in conjunction with CBF1 and other nuclear factors. Luciferase assays were used to measure the antagonism of Notch-CBF1 transcriptional activity. HeLa cervical cancer cells are transiently co-transfected with pCDNA3.1/Hygro plasmids containing truncated Notch 1, Notch 2, Notch 3, or Notch 4 receptors and a PGL3 luciferase reporter vector containing 4 copies of CBF1 binding site. The cells were then tested for Notch-CBF1 activity in the absence or presence of test compounds. HeLa cells, maintained in DMEM (high glucose with HEPES), 1× glutamine/penicillin/streptomycin and 10% Fetal Bovine serum, were transiently transfected in a T175 Flask (4.5×10^6 cells/flask) using the Monster Transfection Kit (Minis #MIR2906) according to manufacturers specifications. Table 5 denotes respective DNA quantity for the transfections.
(§3) Assay media (5 μL) containing test compounds in final concentrations ranging from 5 μM to 8.4×10^−5 μM (3 fold serial dilutions) were added to the cells and the cell plates were then incubated for 18 hours at 37° C. and 5% CO2. Control wells contained DMSO vehicle (total counts) or 0.5 μM of an in-house small molecule inhibitor (background counts). Duplicates were used for each sample. Luciferase activity was measured after a 20-minute incubation with 50 μl STEADY-GLO® luciferase reagents according to manufacturer's specifications (Promega, Cat. #E2550) and analyzed by Envision plate reader (PerkinElmer, Boston, Mass.).
(§4) The antagonist effect of compounds was expressed as 100×[1−(average sample−average background)/(average total−average background)] where sample is the luciferase activity in the presence of test compound, background is equal to the luciferase activity in the presence of the small molecule inhibitor control and the total is signal induced in DMSO wells.

[3] = tested on: human Notch 3; experiment: Notch-CBF1 Transactivation Assay (Notch 3); type: cell-based; conditions: read-out: Notch 3 (IC50); HeLa cells transfected with truncated Notch 3 and CBF1 luciferase reporter; 18 hours; average of N experiments
Text: as §1, §2, §3, §4

Row | Compound | HLM (t1/2, min) [1] [min] | IC50 [2] [nM] | IC50 [3] [nM] | half-life at 0.5 µM [1] [min]
1 | CCC[C@H](C(N)=O)[C@@H](CC(C)C)C(=O)N[C@H]1N=C(c2ccccc2)c2ccccc2N(C)C1=O [Comparative Compound 26, reference compound] | 8 | – | – | –
2 | C=CC[C@H](C(N)=O)[C@@H](CC(C)C)C(=O)N[C@H]1N=C(c2ccccc2)c2cc(Cl)ccc2N(C)C1=O [Comparative Compound 27, reference compound] | 6 | – | – | –
3 | CCCC[C@H](C(N)=O)[C@@H](CC(C)C)C(=O)N[C@H]1N=C(c2ccc(Cl)cc2)c2ccccc2N(C)C1=O [Comparative Compound 28, reference compound] | 6 | – | – | –
4 | C=CC[C@H](C(N)=O)[C@@H](CC(C)C)C(=O)N[C@H]1N=C(c2ccccc2)c2ccccc2N(CCC)C1=O [Comparative Compound 29, reference compound] | 3 | – | – | –
5 | COc1cccc2c1NC(=O)[C@@H](NC(=O)[C@H](CCC(F)(F)F)[C@@H](C(N)=O)C1CCC(F)(F)CC1)N=C2c1ccccc1 [Example 2, (2R,3S)-3-(4,4-Difluorocyclohexyl)-N-((3S)-9-methoxy-2-oxo-5-phenyl-2,3-dihydro-1H-1,4-benzodiazepin-3-yl)-2-(3,3,3-trifluoropropyl)succinamide] | – | 7 | 6 | 43
6 | NC(=O)[C@@H](C1CCC(F)(F)CC1)[C@@H](CCC(F)(F)F)C(=O)N[C@H]1N=C(c2cccc(F)c2)c2cccc(OC3CC3)c2NC1=O [Example 3, (2R,3S)—N-((3S)-9-(Cyclopropyloxy)-5-(3-fluorophenyl)-2-oxo-2,3-dihydro-1H-1,4-benzodiazepin-3-yl)-3-(4,4-difluorocyclohexyl)-2-(3,3,3-trifluoropropyl)succinamide] | – | 4.2 | 8.9 | 80
7 | NC(=O)[C@@H](C1CCC(C(F)(F)F)CC1)[C@@H](CCC(F)(F)F)C(=O)N[C@H]1N=C(c2ccccc2)c2cccc(Cl)c2NC1=O (stereo partly drawn) [Example 4, (2R,3S)—N-((3S)-9-Chloro-2-oxo-5-phenyl-2,3-dihydro-1H-1,4-benzodiazepin-3-yl)-3-(4-(trifluoromethyl)cyclohexyl)-2-(3,3,3-trifluoropropyl)succinamide] | – | 11.9 | 21.2 | > 120
8 | NC(=O)[C@@H](C1CCC(F)(F)CC1)[C@@H](CCC(F)(F)F)C(=O)N[C@H]1N=C(c2ccccc2)c2cccc(Cl)c2NC1=O [Example 5, (2R,3S)—N-((3S)-9-Chloro-2-oxo-5-phenyl-2,3-dihydro-1H-1,4-benzodiazepin-3-yl)-3-(4,4-difluorocyclohexyl)-2-(3,3,3-trifluoropropyl)succinamide] | – | 4.4 | 7.3 | 72
9 | NC(=O)[C@@H](C1CC(F)(F)C1)[C@@H](CCC(F)(F)F)C(=O)N[C@H]1N=C(c2ccccc2)c2ccccc2NC1=O [Example 6] | – | 14 | 18.9 | > 120
10 | NC(=O)[C@@H](CC1CC(F)(F)C1)[C@@H](CCC(F)(F)F)C(=O)N[C@H]1N=C(c2ccccc2)c2cccc(OC3CC3)c2NC1=O [Example 7, (2R,3S)—N-((3S)-9-(Cyclopropyloxy)-2-oxo-5-phenyl-2,3-dihydro-1H-1,4-benzodiazepin-3-yl)-3-((3,3-difluorocyclobutyl)methyl)-2-(3,3,3-trifluoropropyl)succinamide] | – | 3.9 | 2.1 | > 120
11 | COc1cccc2c1NC(=O)[C@@H](NC(=O)[C@H](CCC(F)(F)F)[C@H](CC1CC(F)(F)C1)C(N)=O)N=C2c1ccccc1 [Example 8, (2R,3S)-3-((3,3-Difluorocyclobutyl)methyl)-N-((3S)-9-methoxy-2-oxo-5-phenyl-2,3-dihydro-1H-1,4-benzodiazepin-3-yl)-2-(3,3,3-trifluoropropyl)succinamide] | – | 2.9 | 4 | 58
12 | Cc1cccc2c1NC(=O)[C@@H](NC(=O)[C@H](CCC(F)(F)F)[C@H](CC1CC(F)(F)C1)C(N)=O)N=C2c1cccc(F)c1 [Example 9, (2R,3S)-3-((3,3-Difluorocyclobutyl)methyl)-N-((3S)-5-(3-fluorophenyl)-9-methyl-2-oxo-2,3-dihydro-1H-1,4-benzodiazepin-3-yl)-2-(3,3,3-trifluoropropyl)succinamide] | – | 3.5 | 3.2 | 91
13 | Cc1cccc(C2=N[C@H](NC(=O)[C@H](CCC(F)(F)F)[C@H](CC3CC(F)(F)C3)C(N)=O)C(=O)Nc3c(Cl)cccc32)c1 [Example 10, (2R,3S)—N-((3S)-9-Chloro-5-(3-methylphenyl)-2-oxo-2,3-dihydro-1H-1,4-benzodiazepin-3-yl)-3-((3,3-difluorocyclobutyl)methyl)-2-(3,3,3-trifluoropropyl)succinamide] | – | 1.7 | 4.4 | 69
14 | Cc1cccc(C2=N[C@H](NC(=O)[C@H](CCC(F)(F)F)[C@H](CC3CC(F)(F)C3)C(N)=O)C(=O)Nc3c(F)cccc32)c1 [Example 11, (2R,3S)-3-((3,3-Difluorocyclobutyl)methyl)-N-((3S)-9-fluoro-5-(3-methylphenyl)-2-oxo-2,3-dihydro-1H-1,4-benzodiazepin-3-yl)-2-(3,3,3-trifluoropropyl)succinamide] | – | 2.1 | 2.2 | 46
15 | NC(=O)[C@@H](CC1CC(F)(F)C1)[C@@H](CCC(F)(F)F)C(=O)N[C@H]1N=C(c2ccccc2)c2cccc(C3CC3)c2NC1=O [Example 12, (2R,3S)—N-((3S)-9-Cyclopropyl-2-oxo-5-phenyl-2,3-dihydro-1H-1,4-benzodiazepin-3-yl)-3-((3,3-difluorocyclobutyl)methyl)-2-(3,3,3-trifluoropropyl)succinamide] | – | 5.6 | 4.3 | 41
16 | NC(=O)[C@@H](CC1CC(F)(F)C1)[C@@H](CCC(F)(F)F)C(=O)N[C@H]1N=C(c2ccccc2)c2cccc(Cl)c2NC1=O [Example 13, (2R,3S)—N-((3S)-9-Chloro-2-oxo-5-phenyl-2,3-dihydro-1H-1,4-benzodiazepin-3-yl)-3-((3,3-difluorocyclobutyl)methyl)-2-(3,3,3-trifluoropropyl)succinamide] | – | 2.8 | 2.4 | > 120
17 | NC(=O)[C@@H](CC1CC(F)(F)C1)[C@@H](CCC(F)(F)F)C(=O)N[C@H]1N=C(c2ccccc2)c2cccc(F)c2NC1=O [Example 14, (2R,3S)-3-((3,3-Difluorocyclobutyl)methyl)-N-((3S)-9-fluoro-2-oxo-5-phenyl-2,3-dihydro-1H-1,4-benzodiazepin-3-yl)-2-(3,3,3-trifluoropropyl)succinamide] | – | 4.5 | 1.4 | > 120
18 | NC(=O)[C@@H](CC1CC(F)(F)C1)[C@@H](CCC(F)(F)F)C(=O)N[C@H]1N=C(c2ccccc2)c2ccccc2NC1=O [Example 15, (2R,3S)-3-((3,3-Difluorocyclobutyl)methyl)-N-((3S)-2-oxo-5-phenyl-2,3-dihydro-1H-1,4-benzodiazepin-3-yl)-2-(3,3,3-trifluoropropyl)succinamide] | – | 4.4 | 3.8 | 35
19 | COc1cccc2c1NC(=O)[C@@H](NC(=O)[C@H](CCC(F)(F)F)[C@H](CCCF)C(N)=O)N=C2c1ccccc1 [Example 16, (2R,3S)-3-(3-Fluoropropyl)-N-((3S)-9-methoxy-2-oxo-5-phenyl-2,3-dihydro-1H-1,4-benzodiazepin-3-yl)-2-(3,3,3-trifluoropropyl)succinamide] | – | 7 | 15.4 | 88
20 | COc1ccc2c(c1)NC(=O)[C@@H](NC(=O)[C@H](CCC(F)(F)F)[C@H](CCCF)C(N)=O)N=C2c1ccccc1 [Example 17, (2R,3S)-3-(3-Fluoropropyl)-N-((3S)-8-methoxy-2-oxo-5-phenyl-2,3-dihydro-1H-1,4-benzodiazepin-3-yl)-2-(3,3,3-trifluoropropyl)succinamide] | – | 5.8 | 11 | > 120
21 | CC(F)(F)C[C@H](C(N)=O)[C@@H](CCC(F)(F)F)C(=O)N[C@H]1N=C(c2ccccc2)c2ccccc2NC1=O [Example 18, (2R,3S)-3-(2,2-Difluoropropyl)-N-((3S)-2-oxo-5-phenyl-2,3-dihydro-1H-1,4-benzodiazepin-3-yl)-2-(3,3,3-trifluoropropyl)succinamide] | – | 2.7 | 10.8 | > 120
